Measured values published in patent US10399940B2, “Substituted pyrrolidines and methods of use” (AbbVie S.à.r.l., priority 2016, dated 2019).
Read-outs that look alike come from different tables or passages of the source.

Molecular target: T1, F508delCFTR (Homo sapiens, UniProt P13569, DEL508-508)
T1 construct: expressed in transfected cells; host or cells: CFBE41o- (human lung derived epithelial cell line), doxycycline-inducible expression
Experiment: Cell Surface Expression-Horse Radish Peroxidase (CSE-HRP) assay
Format: cell-based
Settings: CFBE41o-F508delCFTR-HRP cells; for Maximum % activity (with co-corrector): with co-corrector (2 μM); for Maximum % activity (with co-corrector) / Maximum % activity (without co-corrector): normalized to on-plate positive control, highest concentration 20 μM
Method in brief: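 CFBE41o- cells expressed F508delCFTR with HRP in the fourth exofacial loop, induced by 0.5 μg/mL doxycycline for 72 h at 37 °C. Compounds alone or with 2 μM co-corrector ran 18–24 h at 33 °C, 8-point 3-fold from 20 μM. Washed-cell luminol luminescence was normalized to DMSO and positive control, fitted sigmoidally for EC50 (three plates).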

[1] = test compound without co-corrector, 18-24 hours at 33° C., read-out: EC50 (without co-corrector)
[2] = with co-corrector (2 μM of 3-[(2R,4R)-4-({[1-(2,2-difluoro-1,3-benzodioxol-5-yl)cyclopropyl]carbonyl}amino)-7-methoxy-3,4-dihydro-2H-chromen-2-yl]benzoic acid), read-out: EC50 (with co-corrector)

T1 sequence (P13569 with tags, fused parts or gaps DEL508-508): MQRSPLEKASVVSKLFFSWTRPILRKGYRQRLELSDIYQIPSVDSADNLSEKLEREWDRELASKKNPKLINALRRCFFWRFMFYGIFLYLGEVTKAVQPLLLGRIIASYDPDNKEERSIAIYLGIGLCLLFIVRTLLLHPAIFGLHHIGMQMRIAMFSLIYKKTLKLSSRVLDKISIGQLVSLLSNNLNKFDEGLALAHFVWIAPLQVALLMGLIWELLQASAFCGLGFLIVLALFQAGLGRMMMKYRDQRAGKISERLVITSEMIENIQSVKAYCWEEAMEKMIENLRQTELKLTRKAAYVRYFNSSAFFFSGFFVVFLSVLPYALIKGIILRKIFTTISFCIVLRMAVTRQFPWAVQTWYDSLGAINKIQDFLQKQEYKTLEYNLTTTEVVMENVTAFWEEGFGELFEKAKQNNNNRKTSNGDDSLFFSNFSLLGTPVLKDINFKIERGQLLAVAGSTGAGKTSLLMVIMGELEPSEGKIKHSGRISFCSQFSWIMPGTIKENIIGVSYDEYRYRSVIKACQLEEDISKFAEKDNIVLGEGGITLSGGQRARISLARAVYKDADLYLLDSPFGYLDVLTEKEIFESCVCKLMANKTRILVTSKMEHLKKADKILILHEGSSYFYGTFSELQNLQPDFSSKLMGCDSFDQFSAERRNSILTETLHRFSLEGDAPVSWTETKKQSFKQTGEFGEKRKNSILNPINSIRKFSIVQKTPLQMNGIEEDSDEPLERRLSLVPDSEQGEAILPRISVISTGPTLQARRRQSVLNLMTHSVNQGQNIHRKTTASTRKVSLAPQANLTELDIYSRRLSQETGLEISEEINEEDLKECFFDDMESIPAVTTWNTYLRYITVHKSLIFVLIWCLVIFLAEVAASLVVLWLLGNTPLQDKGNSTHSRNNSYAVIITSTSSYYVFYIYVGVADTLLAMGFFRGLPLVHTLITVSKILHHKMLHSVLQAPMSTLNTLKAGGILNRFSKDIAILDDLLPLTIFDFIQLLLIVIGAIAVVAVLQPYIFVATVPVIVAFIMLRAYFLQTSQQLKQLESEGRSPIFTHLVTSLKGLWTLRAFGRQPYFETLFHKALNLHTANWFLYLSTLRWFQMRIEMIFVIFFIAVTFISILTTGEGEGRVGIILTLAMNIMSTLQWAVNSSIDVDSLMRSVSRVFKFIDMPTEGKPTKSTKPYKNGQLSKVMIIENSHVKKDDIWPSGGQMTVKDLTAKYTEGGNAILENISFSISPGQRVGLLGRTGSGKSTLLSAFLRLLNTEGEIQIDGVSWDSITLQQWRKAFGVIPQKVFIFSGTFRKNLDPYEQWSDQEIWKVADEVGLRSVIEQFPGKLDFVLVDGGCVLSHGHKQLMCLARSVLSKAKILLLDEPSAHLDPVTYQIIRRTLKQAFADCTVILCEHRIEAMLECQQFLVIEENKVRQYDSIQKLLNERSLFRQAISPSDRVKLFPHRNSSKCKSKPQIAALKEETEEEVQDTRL

EC50 [1]	EC50 [2]	Maximum % activity (with co-corrector)	Maximum % activity (without co-corrector)	Compound
1 to 10 µM	1 to 10 µM	+++ (≥350)	+++ (≥200)	COc1nc(C(C)(C)C)ccc1CO[C@H]1[C@H](C(C)(C)C)[C@@H](C(=O)O)N(C(=O)C2CCCCC2)[C@H]1c1cccnc1OC(C)C [Example 291, (2S,3R,4S,5S)-3-tert-butyl-4-[(6-tert-butyl-2-methoxypyridin-3-yl)methoxy]-1-(cyclohexanecarbonyl)-5-{2-[(propan-2-yl)oxy]pyridin-3-yl}pyrrolidine-2-carboxylic acid]
< 1 µM	< 1 µM	+++ (≥350)	++ (≥100 and <200)	COc1ncc(C2CCC2)cc1CO[C@H]1[C@H](C(C)(C)C)[C@@H](C(=O)O)N(C(=O)C2CCCCC2)[C@H]1c1ccccc1 [Example 53, (2S,3R,4S,5S)-3-tert-butyl-4-[(5-cyclobutyl-2-methoxypyridin-3-yl)methoxy]-1-(cyclohexanecarbonyl)-5-phenylpyrrolidine-2-carboxylic acid]
1 to 10 µM	1 to 10 µM	+++ (≥350)	+++ (≥200)	COc1ncc(C(F)(F)F)cc1CO[C@H]1[C@H](C(C)(C)C)[C@@H](C(=O)O)N(C(=O)[C@@H]2CCCCO2)[C@H]1c1ccccc1-c1ccc2c(c1)OCO2 [Example 203, (2S,3R,4S,5S)-5-[2-(2H-1,3-benzodioxol-5-yl)phenyl]-3-tert-butyl-4-{[2-methoxy-5-(trifluoromethyl)pyridin-3-yl]methoxy}-1-[(2S)-oxane-2-carbonyl]pyrrolidine-2-carboxylic acid]
1 to 10 µM	1 to 10 µM	+++ (≥350)	++ (≥100 and <200)	COc1ncc(C(F)(F)F)cc1CO[C@H]1[C@H](C(C)(C)C)[C@@H](C(=O)O)N(C(=O)[C@@H]2CCCCO2)[C@H]1c1ccccc1Br [Example 178, (2S,3R,4S,5S)-5-(2-bromophenyl)-3-tert-butyl-4-{[2-methoxy-5-(trifluoromethyl)pyridin-3-yl]methoxy}-1-[(2S)-oxane-2-carbonyl]pyrrolidine-2-carboxylic acid]
1 to 10 µM	< 1 µM	+++ (≥350)	++ (≥100 and <200)	COc1ncc(C2CCC2)cc1CO[C@H]1[C@H](C(C)(C)C)[C@@H](C(=O)O)N(C(=O)O[C@H](C)C(F)(F)F)[C@H]1c1cccnc1OC(C)C [Example 266, (2S,3R,4S,5S)-3-tert-butyl-4-[(5-cyclobutyl-2-methoxypyridin-3-yl)methoxy]-5-{2-[(propan-2-yl)oxy]pyridin-3-yl}-1-({[(2R)-1,1,1-trifluoropropan-2-yl]oxy}carbonyl)pyrrolidine-2-carboxylic acid]
< 1 µM	1 to 10 µM	+++ (≥350)	+ (<100)	COc1ncc(C(F)(F)F)cc1CO[C@H]1[C@H](C(C)(C)C)[C@@H](C(=O)O)N(C(=O)[C@H]2CCCC[C@@H]2C(F)(F)F)[C@H]1c1cccnc1OC(C)C (single isomer, unassigned) [Example 283]
< 1 µM	< 1 µM	+++ (≥350)	+++ (≥200)	COc1ccc(C2(C)CCC2)cc1CO[C@H]1[C@H](C(C)(C)C)[C@@H](C(=O)O)N(C(=O)[C@@H]2CCCCO2)[C@H]1c1ccccc1C [Example 215, (2S,3R,4S,5S)-3-tert-butyl-4-{[2-methoxy-5-(1-methylcyclobutyl)phenyl]methoxy}-5-(2-methylphenyl)-1-[(2S)-oxane-2-carbonyl]pyrrolidine-2-carboxylic acid]
< 1 µM	< 1 µM	+++ (≥350)	++ (≥100 and <200)	CCc1ccccc1[C@H]1[C@@H](OCc2cc3cc(Cl)ccc3o2)[C@H](C(C)(C)C)[C@@H](C(=O)O)N1C(=O)[C@@H]1CCCCO1 [Example 293, (2S,3R,4S,5S)-3-tert-butyl-4-[(5-chloro-1-benzofuran-2-yl)methoxy]-5-(2-ethylphenyl)-1-[(2S)-oxane-2-carbonyl]pyrrolidine-2-carboxylic acid]
1 to 10 µM	1 to 10 µM	+++ (≥350)	++ (≥100 and <200)	COc1ncc(C2CCC2)cc1CO[C@H]1[C@H](C(C)(C)C)[C@@H](C(=O)O)N(C(=O)OC(C)C)[C@H]1c1ccccc1C(C)C [Example 93, (2S,3R,4S,5S)-3-tert-butyl-4-[(5-cyclobutyl-2-methoxypyridin-3-yl)methoxy]-1-{[(propan-2-yl)oxy]carbonyl}-5-[2-(propan-2-yl)phenyl]pyrrolidine-2-carboxylic acid]
1 to 10 µM	1 to 10 µM	+++ (≥350)	++ (≥100 and <200)	COc1ccc(C(F)(F)F)cc1COC1[C@@H](c2cccnc2N(C)C)N(C(=O)C2CCCCC2)[C@@H](C(=O)O)[C@@H]1C(C)(C)C (mixture of isomers) [Example 15, rac-(2R,3S,5R)-3-tert-butyl-1-(cyclohexanecarbonyl)-5-[2-(dimethylamino)pyridin-3-yl]-4-{[2-methoxy-5-(trifluoromethyl)phenyl]methoxy}pyrrolidine-2-carboxylic acid]
> 10 µM	1 to 10 µM	++ (≥150 and <350)	+ (<100)	COc1ncc(C2CCC2)cc1CO[C@H]1[C@H](C(C)(C)C)[C@@H](C(=O)O)N(C(=O)C2(C(F)(F)F)CC2)[C@H]1c1cccnc1OC(C)C [Example 275, (2S,3R,4S,5S)-3-tert-butyl-4-[(5-cyclobutyl-2-methoxypyridin-3-yl)methoxy]-5-{2-[(propan-2-yl)oxy]pyridin-3-yl}-1-[1-(trifluoromethyl)cyclopropane-1-carbonyl]pyrrolidine-2-carboxylic acid]
< 1 µM	< 1 µM	+++ (≥350)	+ (<100)	COc1ncc(C(F)(F)F)cc1CO[C@H]1[C@H](C(C)(C)C)[C@@H](C(=O)O)N(C(=O)[C@@H]2CCCO2)[C@H]1c1ccccc1Br [Example 159, (2S,3R,4S,5S)-5-(2-bromophenyl)-3-tert-butyl-4-{[2-methoxy-5-(trifluoromethyl)pyridin-3-yl]methoxy}-1-[(2S)-oxolane-2-carbonyl]pyrrolidine-2-carboxylic acid]
< 1 µM	< 1 µM	+++ (≥350)	+++ (≥200)	COc1ccc(OC(F)(F)F)cc1CO[C@H]1[C@H](C(C)(C)C)[C@@H](C(=O)O)N(C(=O)[C@@H]2CCCCO2)[C@H]1c1ccccc1C [Example 224, (2S,3R,4S,5S)-3-tert-butyl-4-{[2-methoxy-5-(trifluoromethoxy)phenyl]methoxy}-5-(2-methylphenyl)-1-[(2S)-oxane-2-carbonyl]pyrrolidine-2-carboxylic acid]
1 to 10 µM	1 to 10 µM	++ (≥150 and <350)	+ (<100)	COc1ccc(C(F)(F)F)cc1[C@](O)(CO)CO[C@H]1[C@H](C(C)(C)C)[C@@H](C(=O)O)N(C(=O)[C@@H]2CCCCO2)[C@H]1c1ccccc1C [Example 262, (2S,3R,4S,5S)-3-tert-butyl-4-{(2S)-2,3-dihydroxy-2-[2-methoxy-5-(trifluoromethyl)phenyl]propoxy}-5-(2-methylphenyl)-1-[(2S)-oxane-2-carbonyl]pyrrolidine-2-carboxylic acid]
< 1 µM	< 1 µM	++ (≥150 and <350)	+ (<100)	COc1ncc(C(F)(F)F)cc1CO[C@H]1[C@H](C(C)(C)C)[C@@H](C(=O)O)N(C(=O)C2CCCCC2)[C@H]1c1cccc2c1OC(C)(C)C2 [Example 257, (2S,3R,4S,5S)-3-tert-butyl-1-(cyclohexanecarbonyl)-5-(2,2-dimethyl-2,3-dihydro-1-benzofuran-7-yl)-4-{[2-methoxy-5-(trifluoromethyl)pyridin-3-yl]methoxy}pyrrolidine-2-carboxylic acid]
1 to 10 µM	1 to 10 µM	+++ (≥350)	+++ (≥200)	COc1ncc(C(F)(F)F)cc1CO[C@H]1[C@H](C(C)(C)C)[C@@H](C(=O)O)N(C(=O)[C@@H]2CCCCO2)[C@H]1c1ccccc1-c1cccc(Cl)c1 [Example 191, (2S,3R,4S,5S)-3-tert-butyl-5-(3′-chloro[1,1′-biphenyl]-2-yl)-4-{[2-methoxy-5-(trifluoromethyl)pyridin-3-yl]methoxy}-1-[(2S)-oxane-2-carbonyl]pyrrolidine-2-carboxylic acid]
1 to 10 µM	< 1 µM	+++ (≥350)	++ (≥100 and <200)	COc1ncc(C2CCC2)cc1CO[C@H]1[C@H](C(C)(C)C)[C@@H](C(=O)O)N(C(=O)OC(C)C)[C@H]1c1cccnc1OC(C)C [Example 95, (2S,3R,4S,5S)-3-tert-butyl-4-[(5-cyclobutyl-2-methoxypyridin-3-yl)methoxy]-1-{[(propan-2-yl)oxy]carbonyl}-5-{2-[(propan-2-yl)oxy]pyridin-3-yl}pyrrolidine-2-carboxylic acid]
